# Source: patent US11986532B2 (Arvinas Operations, Inc., priority 2021, dated 2024)
# Where two headings read alike, the source gives them in different places.
# Molecular target: T1, BCL6 (Homo sapiens, UniProt P41182)
# T1 construct: endogenous in cells; host or cells: T47D breast cancer epithelial cells
# Assay: Immunofluorescence protocol for high content imaging of BCL6 (degradation) in T47D cells, 3 days compound treatment
# Type: cell-based
# Details: for Dmax: read-out: Mean Dmax (%)** category; for DC50: read-out: Mean DC50 (nM)* category
# Outline: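 High content immunofluorescence imaging (10×, 4 fields/well) of BCL6 using rabbit primary antibody, Alexa-488 secondary, cell mask and Hoechst nuclear stain after PFA fixation. Before staining, T47D cells (7K/well) were exposed for 3 days at 37° C to 3-fold serial dilutions of compound, top final concentration 0.1 or 1 μM.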
# [1] = T47D cells, 3 days compound treatment
Compound,Dmax (T47D),DC50,DC50 [1],Dmax [1]
"CNC(=O)COc1cc2cc(Nc3nc(N4CCC(O[C@H]5C[C@H](N6CC7(CCN(c8ccc9c(c8C)C(=O)N(C8CCC(=O)NC8=O)C9=O)CC7)C6)C5)CC4)ncc3Cl)ccc2n(C(C)C)c1=O (stereo partly shown) [Compound 418, 2-({6-[(5-chloro-2-{4-[(1r,3r)-3-{7-[2-(2,6-dioxopiperidin-3-yl)-4-methyl-1,3-dioxo-2,3-dihydro-1H-isoindol-5-yl]-2,7-diazaspiro[3.5]nonan-2-yl}cyclobutoxy]piperidin-1-yl}pyrimidin-4-yl)amino]-2-oxo-1-(propan-2-yl)-1,2-dihydroquinolin-3-yl}oxy)-N-methylacetamide]",≥ 70%,< 10 nM,–,–
"CNC(=O)COc1cc2cc(Nc3nc(N4CCC(OC5CN([C@H]6CC[C@H](c7ccc8c(c7F)CN(C7CCC(=O)NC7=O)C8=O)CC6)C5)CC4)ncc3Cl)ccc2n(C(C)C)c1=O (stereo partly shown) [Compound 183, 2-{[6-({5-chloro-2-[4-({1-[(1r,4r)-4-[2-(2,6-dioxopiperidin-3-yl)-4-fluoro-1-oxo-2,3-dihydro-1H-isoindol-5-yl]cyclohexyl]azetidin-3-yl}oxy)piperidin-1-yl]pyrimidin-4-yl}amino)-2-oxo-1-(propan-2-yl)-1,2-dihydroquinolin-3-yl]oxy}-N-methylacetamide]",–,–,< 10 nM,≥ 70%
"CNC(=O)COc1cc2cc(Nc3nc(N4CCC(O[C@H]5C[C@H](N6CCC(c7ccc8c(c7F)CN(C7CCC(=O)NC7=O)C8=O)C(C)(C)C6)C5)CC4)ncc3Cl)ccc2n(C(C)C)c1=O (stereo partly shown) [Compound 187, 2-({6-[(5-chloro-2-{4-[(1r,3r)-3-{4-[2-(2,6-dioxopiperidin-3-yl)-4-fluoro-1-oxo-3H-isoindol-5-yl]-3,3-dimethylpiperidin-1-yl}cyclobutoxy]piperidin-1-yl}pyrimidin-4-yl)amino]-1-isopropyl-2-oxoquinolin-3-yl}oxy)-N-methylacetamide]",–,–,< 10 nM,≥ 70%
"CNC(=O)COc1cc2cc(Nc3nc(N4CCC(O[C@H]5C[C@H](N6CCC(c7cc(C)c8c(c7F)CN(C7CCC(=O)NC7=O)C8=O)CC6)C5)CC4)ncc3Cl)ccc2n(C(C)C)c1=O (stereo partly shown) [Compound 208, 2-({6-[(5-chloro-2-{4-[(1r,3r)-3-{4-[2-(2,6-dioxopiperidin-3-yl)-4-fluoro-7-methyl-1-oxo-3H-isoindol-5-yl]piperidin-1-yl}cyclobutoxy]piperidin-1-yl}pyrimidin-4-yl)amino]-1-isopropyl-2-oxoquinolin-3-yl}oxy)-N-methylacetamide]",–,–,< 10 nM,≥ 70%
"CNC(=O)COc1cc2cc(Nc3cc(N4CCC(CN5CCC6(CN(c7ccc8c(c7)CN(C7CCC(=O)NC7=O)C8=O)C6)C(F)(F)C5)CC4)ncc3Cl)ccc2n(C(C)C)c1=O (stereo not shown) [Compound 231, 2-{[6-({5-chloro-2-[4-({2-[2-(2,6-dioxopiperidin-3-yl)-1-oxo-2,3-dihydro-1H-isoindol-5-yl]-5,5-difluoro-2,7-diazaspiro[3.5]nonan-7-yl}methyl)piperidin-1-yl]pyridin-4-yl}amino)-2-oxo-1-(propan-2-yl)-1,2-dihydroquinolin-3-yl]oxy}-N-methylacetamide]",50 to 70%,< 10 nM,–,–
"CNC(=O)COc1cc2cc(Nc3nc(N4CCN(C(C)(C)C5CCN(c6cccc7c6CN(C6CCC(=O)NC6=O)C7=O)CC5)CC4)ncc3Cl)ccc2n(C(C)C)c1=O (stereo not shown) [Compound 104, 2-{[6-({5-chloro-2-[4-(2-{1-[2-(2,6-dioxopiperidin-3-yl)-1-oxo-2,3-dihydro-1H-isoindol-4-yl]piperidin-4-yl}propan-2-yl)piperazin-1-yl]pyrimidin-4-yl}amino)-2-oxo-1-(propan-2-yl)-1,2-dihydroquinolin-3-yl]oxy}-N-methylacetamide]",–,–,< 10 nM,50 to 70%
"CNC(=O)COc1cc2cc(Nc3nc(N4CCC(O[C@H]5C[C@H](N6CC[C@H](c7ccc8c(c7F)CN(C7CCC(=O)NC7=O)C8=O)[C@@H](O)C6)C5)CC4)ncc3Cl)ccc2n(C(C)C)c1=O (stereo partly drawn) [Compound 284, 2-({6-[(5-chloro-2-{4-[(1r,3r)-3-[(3R,4R)-4-[2-(2,6-dioxopiperidin-3-yl)-4-fluoro-1-oxo-2,3-dihydro-1H-isoindol-5-yl]-3-hydroxypiperidin-1-yl]cyclobutoxy]piperidin-1-yl}pyrimidin-4-yl)amino]-2-oxo-1-(propan-2-yl)-1,2-dihydroquinolin-3-yl}oxy)-N-methylacetamide]",50 to 70%,< 10 nM,–,–
CNC(=O)COc1cc2cc(Nc3nc(N4CCC(F)(CN5CC6(CCN(c7cc8c(cc7F)C(=O)N(C7CCC(=O)NC7=O)C8)CC6)C5)CC4)ncc3Cl)ccc2n(C(C)C)c1=O (stereo not shown) [Compound 106],–,–,< 10 nM,50 to 70%
"CCn1c(=O)c(OCC(=O)NC)cc2cc(Nc3nc(N4CCC(O[C@H]5C[C@H](N6CCC(c7ccc8c(c7)C(=O)N(C7CCC(=O)NC7=O)C8=O)CC6)C5)CC4)ncc3Cl)ccc21 (stereo partly shown) [Compound 5, 2-[[6-[[5-chloro-2-[4-[3-[4-[2-(2,6-dioxo-3-piperidyl)-1,3-dioxo-isoindolin-5-yl]-1-piperidyl]cyclobutoxy]-1-piperidyl]pyrimidin-4-yl]amino]-1-ethyl-2-oxo-3-quinolyl]oxy]-N-methyl-acetamide]",–,–,< 10 nM,≥ 70%
"CNC(=O)COc1cc2cc(Nc3nc(N4CCC(O[C@H]5C[C@H](N6CC7(CCN(c8ccc9c(c8)CN(C8CCC(=O)NC8=O)C9=O)C7)C6)C5)CC4)ncc3Cl)ccc2n(C(C)C)c1=O (stereo partly shown) [Compound 351, 2-({6-[(5-chloro-2-{4-[(1r,3r)-3-{6-[2-(2,6-dioxopiperidin-3-yl)-1-oxo-2,3-dihydro-1H-isoindol-5-yl]-2,6-diazaspiro [3.4]octan-2-yl}cyclobutoxy]piperidin-1-yl}pyrimidin-4-yl)amino]-2-oxo-1-(propan-2-yl)-1,2-dihydroquinolin-3-yl}oxy)-N-methylacetamide]",≥ 70%,< 10 nM,–,–
"CNC(=O)COc1cc2cc(Nc3nc(N4CCC(O[C@H]5C[C@H](N6CCC(c7cc(F)c8c(c7F)CN([C@H]7CCC(=O)NC7=O)C8=O)CC6)C5)CC4)ncc3Cl)ccc2n(C(C)C)c1=O [Compound 188, 2-({6-[(5-chloro-2-{4-[(1r,3r)-3-(4-{2-[(3S)-2,6-dioxopiperidin-3-yl]-4,7-difluoro-1-oxo-2,3-dihydro-1H-isoindol-5-yl}piperidin-1-yl)cyclobutoxy]piperidin-1-yl}pyrimidin-4-yl)amino]-2-oxo-1-(propan-2-yl)-1,2-dihydroquinolin-3-yl}oxy)-N-methylacetamide]",–,–,< 10 nM,≥ 70%
"CNC(=O)COc1cc2cc(Nc3nc(N4CCC(O[C@H]5C[C@H](N6CC[C@@H](c7ccc8c(c7F)CN([C@@H]7CCC(=O)NC7=O)C8=O)C(C)(C)C6)C5)CC4)ncc3Cl)ccc2n(C(C)C)c1=O [Compound 396, 2-({6-[(5-chloro-2-{4-[(1r,3r)-3-[(4R)-4-{2-[(3R)-2,6-dioxopiperidin-3-yl]-4-fluoro-1-oxo-2,3-dihydro-1H-isoindol-5-yl}-3,3-dimethylpiperidin-1-yl]cyclobutoxy]piperidin-1-yl}pyrimidin-4-yl)amino]-2-oxo-1-(propan-2-yl)-1,2-dihydroquinolin-3-yl}oxy)-N-methylacetamide]",≥ 70%,< 10 nM,–,–
"CNC(=O)COc1cc2cc(Nc3nc(N4CCC(O[C@H]5C[C@H](N6CCC(c7ccc8c(c7Cl)CN(C7CCC(=O)NC7=O)C8=O)CC6)C5)CC4)ncc3Cl)ccc2n(C(C)C)c1=O (stereo partly shown) [Compound 163, 2-({6-[(5-chloro-2-{4-[(1r,3r)-3-{4-[4-chloro-2-(2,6-dioxopiperidin-3-yl)-1-oxo-2,3-dihydro-1H-isoindol-5-yl]piperidin-1-yl}cyclobutoxy]piperidin-1-yl}pyrimidin-4-yl)amino]-2-oxo-1-(propan-2-yl)-1,2-dihydroquinolin-3-yl}oxy)-N-methylacetamide]",–,–,< 10 nM,≥ 70%
"CNC(=O)COc1cc2c(F)c(Nc3nc(N4CCC(O[C@H]5C[C@H](N6CCC(c7ccc8c(c7)C(=O)N(C7CCC(=O)NC7=O)C8=O)CC6)C5)CC4)ncc3Cl)ccc2n(C(C)C)c1=O (stereo partly shown) [Compound 172, 2-({6-[(5-chloro-2-{4-[(1r,3r)-3-{4-[2-(2,6-dioxopiperidin-3-yl)-1,3-dioxo-2,3-dihydro-1H-isoindol-5-yl]piperidin-1-yl}cyclobutoxy]piperidin-1-yl}pyrimidin-4-yl)amino]-5-fluoro-2-oxo-1-(propan-2-yl)-1,2-dihydroquinolin-3-yl}oxy)-N-methylacetamide]",–,–,< 10 nM,≥ 70%
CNC(=O)COc1cc2cc(Nc3nc(N4CCC(OC5CN([C@H]6CC[C@@H](c7ccc8c(c7F)CN(C7CCC(=O)NC7=O)C8=O)CC6)C5)CC4)ncc3Cl)ccc2n(C(C)C)c1=O (stereo partly shown) [Compound 184],–,–,< 10 nM,≥ 70%
"CNC(=O)COc1cc2cc(Nc3nc(N4CCC(N5CCC6(CN(CC7CCN(c8ccc9c(c8)CN(C8CCC(=O)NC8=O)C9=O)CC7)C6)C5)CC4)ncc3Cl)ccc2n(C(C)C)c1=O (stereo not shown) [Compound 236, 2-({6-[(5-chloro-2-{4-[2-({1-[2-(2,6-dioxopiperidin-3-yl)-1-oxo-2,3-dihydro-1H-isoindol-5-yl]piperidin-4-yl}methyl)-2,6-diazaspiro[3.4]octan-6-yl]piperidin-1-yl}pyrimidin-4-yl)amino]-2-oxo-1-(propan-2-yl)-1,2-dihydroquinolin-3-yl}oxy)-N-methylacetamide]",50 to 70%,< 10 nM,–,–
"CNC(=O)COc1cc2cc(Nc3nc(N4CC(C)OC(C)C4)ncc3Cl)ccc2n(CCOc2ccc3c(c2)C(=O)N(C2CCC(=O)NC2=O)C3=O)c1=O (stereo not shown) [Compound 33, 2-[(6-{[5-chloro-2-(2,6-dimethylmorpholin-4-yl)pyrimidin-4-yl]amino}-1-(2-{[2-(2,6-dioxopiperidin-3-yl)-1,3-dioxo-2,3-dihydro-1H-isoindol-5-yl]oxy}ethyl)-2-oxo-1,2-dihydroquinolin-3-yl)oxy]-N-methylacetamide]",–,–,50 to 100 nM,< 50%
